# Source: article PMC5500904 (Clinical cancer research : an official journal of the …, 2016)
# Read-outs that look alike come from different tables or passages of the source.
# Experiments:
# advanced NSCLC = conditions: cited from earlier work
# [1] = test system: patients with advanced solid tumors; conditions: in vivo
# [2] = in vivo
# clinical = conditions: human, in vivo; for Cmax: 150 mg; for AUC(0-t): AUC0–last
# IGF1R = IGF1R (Homo sapiens, UniProt P08069); test: Phosphorylation of IGF1R in PBMCs; type: in vivo
# IGF1R, sequence (P08069 31-1367): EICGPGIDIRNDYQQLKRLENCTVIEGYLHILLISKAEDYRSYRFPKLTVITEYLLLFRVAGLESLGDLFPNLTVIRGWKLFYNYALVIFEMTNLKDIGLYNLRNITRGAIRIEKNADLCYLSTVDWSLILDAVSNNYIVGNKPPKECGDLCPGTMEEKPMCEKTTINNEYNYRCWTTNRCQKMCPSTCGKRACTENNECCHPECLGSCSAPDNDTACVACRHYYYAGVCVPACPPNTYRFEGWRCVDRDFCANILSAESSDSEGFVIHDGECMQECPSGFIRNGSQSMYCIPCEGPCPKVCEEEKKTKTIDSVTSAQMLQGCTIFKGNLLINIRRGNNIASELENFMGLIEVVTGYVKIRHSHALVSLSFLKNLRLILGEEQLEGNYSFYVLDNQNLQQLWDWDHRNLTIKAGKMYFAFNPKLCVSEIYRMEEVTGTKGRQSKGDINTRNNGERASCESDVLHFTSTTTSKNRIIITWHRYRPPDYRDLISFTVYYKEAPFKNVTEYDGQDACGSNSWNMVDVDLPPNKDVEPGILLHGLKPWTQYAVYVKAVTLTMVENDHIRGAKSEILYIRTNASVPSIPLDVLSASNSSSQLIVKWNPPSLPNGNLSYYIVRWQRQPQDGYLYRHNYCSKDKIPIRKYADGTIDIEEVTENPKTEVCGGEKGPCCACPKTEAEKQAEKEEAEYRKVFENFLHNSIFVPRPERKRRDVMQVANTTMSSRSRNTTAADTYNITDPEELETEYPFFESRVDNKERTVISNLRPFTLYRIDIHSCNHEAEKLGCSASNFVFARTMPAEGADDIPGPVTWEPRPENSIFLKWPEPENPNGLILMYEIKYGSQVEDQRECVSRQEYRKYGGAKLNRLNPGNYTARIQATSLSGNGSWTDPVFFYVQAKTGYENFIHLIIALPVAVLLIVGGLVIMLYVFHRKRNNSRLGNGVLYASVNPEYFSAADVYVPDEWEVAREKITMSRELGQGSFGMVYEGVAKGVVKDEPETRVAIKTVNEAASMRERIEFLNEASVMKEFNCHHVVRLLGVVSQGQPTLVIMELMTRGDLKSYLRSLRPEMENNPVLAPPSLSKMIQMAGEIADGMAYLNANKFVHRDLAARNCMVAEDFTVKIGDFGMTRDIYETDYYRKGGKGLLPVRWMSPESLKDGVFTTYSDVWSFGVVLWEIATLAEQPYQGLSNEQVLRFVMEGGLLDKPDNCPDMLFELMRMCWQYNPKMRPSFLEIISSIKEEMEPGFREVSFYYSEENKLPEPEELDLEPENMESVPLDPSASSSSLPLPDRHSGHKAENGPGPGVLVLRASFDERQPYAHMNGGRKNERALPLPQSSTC
# [3] = cited from earlier work
# adrenocortical carcinoma = conditions: cited from earlier work
# metastatic CRC = conditions: combined with everolimus; cited from earlier work
# [4] = test system: patients with solid tumors; conditions: cited from earlier work; for antitumor activity as monotherapy: single agent, solid tumors
molecule,measurement,setting,value
"R1507: IGF1R antibody, evaluated with erlotinib in NSCLC",12-week progression-free survival rate,"advanced NSCLC; R1507 with erlotinib, patients with KRAS-mutant tumors",36%
same,progression-free or overall survival versus erlotinib alone,"advanced NSCLC; R1507 with erlotinib, unselected patients",no progression-free survival or overall survival advantage
same,tolerability,advanced NSCLC; in vivo,tolerable
"C#Cc1cccc(Nc2ncnc3cc(OCCOC)c(OCCOC)cc23)c1 [erlotinib, Erlotinib, reference compound]",Erlotinib-related AE: diarrhea,[1]; human,26%
same,Erlotinib-related AE: drug eruption,[1]; human,74%
same,Erlotinib-related AE: dry skin,[1]; human,26%
same,Erlotinib-related AE: pruritus,[1]; human,26%
same,Erlotinib-related AEs,[1]; human,84 % of patients
same,patients discontinuing for an event related only to the named treatment,[1]; human,3 patients
same,Tmax,[2]; human,4.1 (1.9–8.4) h
same,Cmax,clinical,1280 ng/mL
same,AUC(0-t),clinical,21100 ng·h/mL
same,Tmax,clinical,4.1 h
"C[C@]1(O)C[C@@H](c2nc(-c3ccc4ccc(-c5ccccc5)nc4c3)c3c(N)nccn32)C1 [linsitinib, Linsitinib]",IGF1R phosphorylation in PBMCs,"IGF1R; 2 to 24 hours after the first dose, 7 cases, S1–S3",substantially inhibited
same,IGF1R phosphorylation in PBMCs,"IGF1R; later time points, intermittent S1 schedule",fluctuating receptor inhibition
same,IGF1R phosphorylation in PBMCs,"IGF1R; later time points, ≥300 mg linsitinib daily in S2 and S3",persisting receptor inhibition
same,Linsitinib-related hyperglycemia at grade 2,[1]; human,2
same,Linsitinib-related hyperglycemia at grade 3,[1]; human,3 cases
same,Treatment-related SAEs,[1]; human,10 of 40 (25%) patients (%)
same,linsitinib-related AE: fatigue,[1]; human,12%
same,linsitinib-related AE: nausea,[1]; human,11%
same,linsitinib-related AE: prolonged QTc interval,[1]; human,8%
same,linsitinib-related AE: vomiting,[1]; human,8%
same,patients discontinuing for an event related only to the named treatment,[1]; human,1 patients
same,thrombocytopenia and neutropenia,[1],not observed
same,Cmax and AUC from time zero to infinity versus dose,[2],increased in a dose-proportional manner
same,drug–drug interaction (pharmacokinetic),[2],no significant drug–drug interaction effect
same,plasma level associated with preclinical activity,[3],~ 1 μmol/L
same,overall survival versus placebo arm,adrenocortical carcinoma,no difference in overall survival
same,patients with durable PR,adrenocortical carcinoma; linsitinib arm,3 of 90
same,clinical activity,metastatic CRC,no evidence of clinical activity
same,concentration at 24 h,clinical,≤ 400 ng/mL
same,Cmax,clinical,2580 ng/mL
same,AUC(0-t),clinical,17900 ng·h/mL
same,Tmax,clinical,3 h
same,QTc prolongation versus peak concentrations of linsitinib,"[4]; another study, 600 mg dose, ref unpublished data",associated with peak concentrations
same,half-life,[4],5 h
same,monotherapy MTD,[4]; continuous once daily dosing,400 mg
same,monotherapy MTD,[4]; intermittent dosing,600 mg
same,antitumor activity as monotherapy,[4],partial responses (PR) in melanoma and adrenocortical carcinoma
same,antitumor activity as monotherapy,[4]; listed as Linsitinib,induced partial responses in adrenocortical carcinoma and melanoma
same,monotherapy RP2D,"[4]; twice daily, continuous",150 mg
